Reference: ChEMBL document CHEMBL6153126, “Design, Synthesis, and Activity Evaluation of Novel Bifenamide Dual-Target Antibacterial Inhibitors and Carrier Based on Infectious Microenvironment” (J Med Chem, 2025)
Calls of active or inactive are those of the source. No cut-off for these calls is given here.

Legend:
[1] = tested on: Klebsiella pneumoniae; assay: Downregulation of IL-2 expression in Klebsiella pneumoniae ATCC 13883 by immunohistochemistry analysis; type: functional
[2] = Half life in rat at 2 mg/kg, iv measured upto 24 hrs by LC-MS/MS analysis; type: ADME, organism-based; conditions: in vivo
[3] = tested on: Klebsiella pneumoniae; assay: Downregulation of IFN-gamma expression in Klebsiella pneumoniae ATCC 13883 by Western blot analysis; type: functional
[4] = AUC (0 to t) in rat at 2 mg/kg, iv measured upto 24 hrs by LC-MS/MS analysis; type: ADME, organism-based; conditions: in vivo
[5] = Initial plasma concentration in rat at 2 mg/kg, iv measured upto 24 hrs by LC-MS/MS analysis; type: ADME, organism-based; conditions: plasma
[6] = tested on: Klebsiella pneumoniae; assay: Downregulation of NF-kappaB expression in Klebsiella pneumoniae ATCC 13883 by Western blot analysis; type: functional
[7] = tested on: Escherichia coli; assay: Antimicrobial activity against Escherichia coli ATCC 8739 assessed as inhibition of microbial growth incubated for 64 hrs by broth-microdilution assay; type: functional
[8] = tested on: Klebsiella pneumoniae; assay: Induction of morphological changes in Klebsiella pneumoniae ATCC 13883 assessed as leakage in cellular contents measured for 96 hrs by transmission electron microscopy analysis; type: functional, organism-based
[9] = molecular target: Programmed cell death protein 1/Programmed cell death 1 ligand 1 (Homo sapiens, UniProt Q9NZQ7); assay: Inhibition of PD-1/PD-L1 (unknown origin) protein-protein interaction preincubated for 15 mins followed by PD-1-Eu addition and measured after 90 mins by TR-FRET assay; type: protein-complex assay
[10] = Toxicity in Kunming mouse assessed as change in BUN level at 2 mg/kg, iv (reference value: 11.2 +/- 2 mmol/L); type: organism-based; conditions: in vivo
[11] = tested on: Klebsiella pneumoniae; assay: Downregulation of IL-2 expression in Klebsiella pneumoniae ATCC 13883 by Western blot analysis; type: functional
[12] = tested on: Klebsiella pneumoniae; assay: Downregulation of PD-1 expression in Klebsiella pneumoniae ATCC 13883 by Western blot analysis; type: functional
[13] = molecular target: Programmed cell death 1 ligand 1 (Homo sapiens) (UniProt Q9NZQ7); assay: Binding affinity to PD-L1 (unknown origin) assessed as Change in enthalpy by ITC analysis
[14] = tested on: Klebsiella pneumoniae; assay: Induction of intracellular ROS accumulation in Klebsiella pneumoniae ATCC 13883 incubated for 12 hrs by fluorescence microscopic analysis; type: functional, organism-based
[15] = Toxicity in Kunming mouse assessed as side effect at 2 mg/kg, iv; type: organism-based; conditions: in vivo
[16] = tested on: Klebsiella pneumoniae; assay: Antimicrobial activity against Klebsiella pneumoniae ATCC 13883 assessed as increase in percentage of bacterial cells by flow cytometry analysis; type: functional, organism-based
[17] = tested on: Klebsiella pneumoniae; assay: Antimicrobial activity against Klebsiella pneumoniae ATCC 13883 assessed as inhibition zone; type: functional
[18] = Toxicity in Kunming mouse assessed as change in AST level at 2 mg/kg, iv (reference value: 91.5 +/- 7.2 IU/L); type: organism-based; conditions: in vivo
[19] = Toxicity in Kunming mouse assessed as change in ALT level at 2 mg/kg, iv (reference value: 54.8 +/- 5.2 IU/L); type: organism-based; conditions: in vivo
[20] = tested on: Klebsiella pneumoniae; assay: Bactericidal activity against Klebsiella pneumoniae ATCC 13883 assessed as reduction in survival rate by colony counting method; type: functional
[21] = tested on: Klebsiella pneumoniae; assay: Antibacterial activity against Klebsiella pneumoniae ATCC 13883 infected in Kunming mouse model assessed as reduction in alveolar space in lung at 2 mg/kg, iv by H and E staining based analysis; type: functional, organism-based
[22] = tested on: Klebsiella pneumoniae; assay: Antibacterial activity against Klebsiella pneumoniae ATCC 13883 infected in Kunming mouse model assessed as reduction in bacterial proliferation at 2 mg/kg, iv; type: functional, organism-based
[23] = Toxicity in Kunming mouse assessed as lung damage at 2 mg/kg, iv by masson staining based analysis; type: organism-based; conditions: in vivo
[24] = molecular target: T1, UDP-3-O-acyl-N-acetylglucosamine deacetylase (Escherichia coli K-12, UniProt P0A725); assay: Inhibition of Escherichia coli LpxC
T1 sequence (P0A725 whole entry): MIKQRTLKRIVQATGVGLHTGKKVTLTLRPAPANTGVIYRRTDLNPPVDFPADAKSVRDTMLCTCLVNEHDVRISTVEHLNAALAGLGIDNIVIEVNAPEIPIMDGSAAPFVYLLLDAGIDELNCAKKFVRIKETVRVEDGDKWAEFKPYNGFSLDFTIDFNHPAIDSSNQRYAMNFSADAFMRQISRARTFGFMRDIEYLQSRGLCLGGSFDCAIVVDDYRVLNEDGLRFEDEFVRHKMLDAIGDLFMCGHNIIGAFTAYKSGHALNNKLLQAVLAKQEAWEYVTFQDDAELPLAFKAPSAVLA

[25] = tested on: Klebsiella pneumoniae; assay: Downregulation of MMP9 expression in Klebsiella pneumoniae ATCC 13883 by Western blot analysis; type: functional
[26] = tested on: Klebsiella pneumoniae; assay: Induction of morphological changes in Klebsiella pneumoniae ATCC 13883 assessed as reduction in cell membrane thickness measured for 24 hrs by transmission electron microscopy analysis; type: functional, organism-based
[27] = tested on: Pseudomonas aeruginosa; assay: Antimicrobial activity against Pseudomonas aeruginosa ATCC 9027 assessed as inhibition of microbial growth incubated for 64 hrs by broth-microdilution assay; type: functional
[28] = tested on: Klebsiella pneumoniae; assay: Downregulation of NLRP3 expression in Klebsiella pneumoniae ATCC 13883 by Western blot analysis; type: functional
[29] = Toxicity in Kunming mouse assessed as lung damage at 2 mg/kg, iv by H and E staining based analysis; type: organism-based; conditions: in vivo
[30] = tested on: Klebsiella pneumoniae; assay: Antibacterial activity against Klebsiella pneumoniae ATCC 13883 infected in Kunming mouse model measured after 8 hrs; type: functional, organism-based
[31] = tested on: Klebsiella pneumoniae; assay: Induction of morphological changes in Klebsiella pneumoniae ATCC 13883 assessed as leakage in cellular contents measured for 48 hrs by transmission electron microscopy analysis; type: functional, organism-based
[32] = molecular target: T1, UDP-3-O-acyl-N-acetylglucosamine deacetylase; assay: Binding affinity to Escherichia coli LpxC assessed as dissociation constant by SPR analysis
[33] = tested on: Klebsiella pneumoniae; assay: Downregulation of PD-L1 expression in Klebsiella pneumoniae ATCC 13883 by Western blot analysis; type: functional
[34] = molecular target: Programmed cell death 1 ligand 1 (Homo sapiens) (UniProt Q9NZQ7); assay: Binding affinity to PD-L1 (unknown origin) assessed as association constant at equilibrium by ITC analysis
[35] = tested on: Klebsiella pneumoniae; assay: Antibacterial activity against Klebsiella pneumoniae ATCC 13883 infected in Kunming mouse model assessed as organised collagen fibers in skin tissue at 2 mg/kg, iv by Masson's trichome staining based analysis; type: functional, organism-based
[36] = tested on: Klebsiella pneumoniae; assay: Induction of morphological changes in Klebsiella pneumoniae ATCC 13883 assessed as reduction in cell wall thickness measured for 24 hrs by transmission electron microscopy analysis; type: functional, organism-based
[37] = tested on: HeLa; assay: Cytotoxicity against human HeLa cells incubated for 24 hrs by CCK-8 assay; type: functional, cell-based
[38] = tested on: A549; assay: Cytotoxicity against human A549 cells incubated for 24 hrs by CCK-8 assay; type: functional, cell-based; conditions: A549, 24 h
[39] = Binding affinity to PD-L1 (unknown origin) assessed as dissociation constant by SPR analysis; parameters: species or system Homo sapiens
[40] = tested on: Klebsiella pneumoniae; assay: Antimicrobial activity against Klebsiella pneumoniae ATCC 13883 assessed as inhibition of microbial growth incubated for 64 hrs by broth-microdilution assay; type: functional
[41] = tested on: Pseudomonas aeruginosa; assay: Antimicrobial activity against Pseudomonas aeruginosa ATCC 9027 assessed as inhibition zone; type: functional; conditions: time 64 hrs
[42] = tested on: Salmonella typhimurium; assay: Antimicrobial activity against Salmonella typhimurium ATCC 14028 assessed as inhibition of microbial growth incubated for 64 hrs by broth-microdilution assay; type: functional, Salmonella enterica subsp. enterica serovar Typhimurium; conditions: Salmonella enterica
[43] = tested on: Klebsiella pneumoniae; assay: Downregulation of IFN-gamma expression in Klebsiella pneumoniae ATCC 13883 by immunohistochemistry analysis; type: functional
[44] = Toxicity in Kunming mouse assessed as change in CRE level at 2 mg/kg, iv (reference value: 16.7 +/- 1.6 micromol/L); type: organism-based; conditions: in vivo
[45] = Toxicity in Kunming mouse assessed as body weight loss at 2 mg/kg, iv; type: organism-based; conditions: in vivo
[46] = tested on: Klebsiella pneumoniae; assay: Downregulation of PD-L1 expression in Klebsiella pneumoniae ATCC 13883 by immunohistochemistry analysis; type: functional
[47] = Clearance in rat at 2 mg/kg, iv measured upto 24 hrs by LC-MS/MS analysis; type: ADME, organism-based; conditions: in vivo
[48] = Volume of distribution at steady state in rat at 2 mg/kg, iv measured upto 24 hrs by LC-MS/MS analysis; type: ADME, organism-based; conditions: in vivo, read-out: Vdss

Chain of Programmed cell death 1 ligand 1 (Homo sapiens) (Q9NZQ7 whole entry): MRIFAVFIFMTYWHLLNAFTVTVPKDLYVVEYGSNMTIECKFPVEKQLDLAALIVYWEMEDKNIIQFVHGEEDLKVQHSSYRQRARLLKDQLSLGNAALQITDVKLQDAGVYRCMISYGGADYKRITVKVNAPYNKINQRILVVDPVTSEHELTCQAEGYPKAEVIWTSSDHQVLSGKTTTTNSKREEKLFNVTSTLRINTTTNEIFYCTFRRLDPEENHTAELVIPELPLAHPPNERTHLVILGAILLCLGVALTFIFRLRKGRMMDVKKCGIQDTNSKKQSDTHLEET
Chain of Programmed cell death protein 1/Programmed cell death 1 ligand 1 (Q15116 whole entry): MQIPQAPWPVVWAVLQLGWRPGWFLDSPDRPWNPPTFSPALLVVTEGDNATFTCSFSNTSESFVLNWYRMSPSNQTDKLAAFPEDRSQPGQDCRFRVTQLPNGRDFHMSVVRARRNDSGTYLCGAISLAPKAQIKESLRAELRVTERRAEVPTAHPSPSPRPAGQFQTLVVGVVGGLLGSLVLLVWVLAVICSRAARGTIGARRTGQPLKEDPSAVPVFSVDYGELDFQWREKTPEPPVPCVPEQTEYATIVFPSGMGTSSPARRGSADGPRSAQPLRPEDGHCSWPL
Chain of Programmed cell death protein 1/Programmed cell death 1 ligand 1 (Q9NZQ7 whole entry): as the sequence (Q9NZQ7 whole entry) above

For Cc1c(COc2cccc(CNC(C(=O)NO)C(C)O)c2)cccc1-c1ccccc1 (stereo not drawn), the Activity [1] was “Active”, the half-life [2] was 2.39 h and the Activity [3] was “Active”. The AUC(0-t) at 24 h [4] was 431 ng·h/mL, the C0 at 24 h [5] was 649 ng/mL and the Activity [6] was “Active”. The MIC50 [7] was 0.5 µg/mL, the Activity [8] was “Active” and the IC50 [9] was 81 nM. For the same compound, the Activity [10] was 8.6 mmol/L, the Activity [11] was “Active” and the Activity [12] was “Active”. For the same compound, the deltaH [13] was 1.79 kcal/mol, the Activity [14] was “Active” and the Activity [15] was “Non-toxic”. The Activity [16] was “Active”, the “inhibition zone (IZ)” value [17] was 14.7 mm and the Activity [18] was 104.2 IU/L. The Activity [19] was 34.5 IU/L, the Activity [20] was “Active” and the Activity [21] was “Active”. The Activity [22] was “Active”, the Activity [23] was “Non-toxic” and the IC50 [24] was 5200 nM. For the same compound, the Activity [25] was “Active”, the Activity [26] was “Active” and the MIC50 [27] was 0.5 µg/mL. For the same compound, the Activity [28] was “Active”, the Activity [29] was “Non-toxic” and the Activity [30] was “Active”. The Activity [31] was “Active”, the Kd [32] was 0.357 nM and the Activity [33] was “Active”. The Ka [34] was 6.04 10^5/M, the Activity [35] was “Active” and the Activity [36] was “Active”. The IC50 [37] was over 50000 nM, the IC50 [38] was over 50000 nM and the Kd [39] was 0.523 nM. The MIC50 [40] was 0.25 µg/mL, the “inhibition zone (IZ)” value [41] was 14.2 mm and the MIC50 [42] was 0.5 µg/mL. The Activity [43] was “Active”, the Activity [44] was 12.5 µmol/L and the Activity [45] was “Non-toxic”. The Activity [46] was “Active”, the clearance [47] was 63.7 mL/min/kg and the Vd [48] was 5.71 L/kg.
